In patent US9493485B2, “Spirocyclic dihydro-thiazine and dihydro-oxazine BACE inhibitors, and compositions and uses thereof” (Imago Pharmaceuticals, Inc., priority 2012, dated 2016):

Tests used:
[1] = molecular target: T1, BACE1 (Homo sapiens (Human), UniProt P56817); assay: BACE1 AlphaScreen assay (displacement of biotinylated BACE1 binding site probe); settings: read-out: BACE1 AS IC50
[2] = molecular target: T1, BACE1; assay: BACE1 FP assay; type: biochemical; settings: pH 4.5
[3] = molecular target: Cathepsin D (Homo sapiens (Human), UniProt P07339); assay: Cathepsin D FP assay; type: biochemical; settings: pH 4.5, read-out: CatD FP IC50
Chain of Cathepsin D (P07339 65-412, species assumed): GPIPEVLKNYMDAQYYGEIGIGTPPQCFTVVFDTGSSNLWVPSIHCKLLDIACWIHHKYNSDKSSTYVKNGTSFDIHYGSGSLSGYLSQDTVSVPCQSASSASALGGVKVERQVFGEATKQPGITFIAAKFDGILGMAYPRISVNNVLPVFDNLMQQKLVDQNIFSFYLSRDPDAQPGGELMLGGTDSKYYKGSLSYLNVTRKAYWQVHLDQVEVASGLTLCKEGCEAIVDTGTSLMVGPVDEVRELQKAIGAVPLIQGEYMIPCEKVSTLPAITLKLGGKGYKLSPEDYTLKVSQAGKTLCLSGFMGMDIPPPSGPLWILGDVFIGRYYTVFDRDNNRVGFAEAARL
Summary of the method: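 AlphaScreen (PBS, 0.01% Tween-20, 0.05% BSA, pH 7.0): compound preincubated 15 min with BACE1 ([…]), then biotinylated binding-site probe 1 h, beads 2 h; IC50 from signal. FP (100 mM sodium acetate, pH 4.5, 0.001% Tween-20): added BACE1 (0.3 nM) or cathepsin D (1.8 nM), 30 min RT.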

[4] = tested on: BACE1 inhibition in HEKp293 cells transfected with APP751 gene (SWE293); assay: SWE293 cellular assay: reduction of Aβ peptide production, ELISA; type: cell-based; settings: Homo sapiens; dose at which Aβ level is reduced by 50%, HEKp293 SWE293 cells; read-out: SWE293 ED50
Summary of the method: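 SWE293 cells (HEK293 carrying APP751), plated overnight at 37 °C, received 1:3 serially diluted compound for two successive 2 h exposures with washes between. Medium Aβ was captured on 266-antibody plates, detected with 3D6 antibody and streptavidin-AP fluorescent substrate, and quantified against an Aβ-40 standard curve.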

[5] = tested on: Aβ x-40 levels; assay: In vivo reduction of Aβ x-40 levels in Sprague Dawley rat, oral dosing; settings: for effect on brain Aβ x-40 levels / decrease of the mean Aβ x-40 compared to vehicle control in brain samples: rat cortical brain, 3 hours post dosing
Experimental: Ability of a compound as described herein to reduce the level of Aβ peptide in vivo was determined in a Sprague Dawley rat model. Compounds were dosed orally in female Sprague Dawley rats, along with a vehicle control, five rats per dose group. Compounds were formulated in 5% DMSO/0.5% methylcellulose, and dosed at various amounts (10 mL/kg), and 10 mL/kg vehicle by oral gavage. CSF was collected from the cistern magna under isoflurane anesthesia, frozen on dry ice and stored at −80° C. until assessed for Aβ peptide levels. […] Cortical brain samples were homogenized in 5 M guanidine and Aβ peptide was quantitated in these brain samples as well as plasma samples in an ELISA assay, where Aβ x-40 ELISA detects Aβ peptide N-terminal sequences containing the transmembrane region and ending at amino acid 40 at the C-terminus. The ELISA was performed as described in Johnson-Wood et al., PNAS February 1997, 94: 1550-1555, using capture antibody 266 (Aβ 16-23 specific) and biotinylated 2G3 (Aβ 40 specific) as reporter antibody. Results of cortical and plasma Aβ x-40 levels were statistically analyzed separately using a one-way Anova with a Dunnets post test analysis at the 0.05 significant level.

T1 sequence (P56817 46-501): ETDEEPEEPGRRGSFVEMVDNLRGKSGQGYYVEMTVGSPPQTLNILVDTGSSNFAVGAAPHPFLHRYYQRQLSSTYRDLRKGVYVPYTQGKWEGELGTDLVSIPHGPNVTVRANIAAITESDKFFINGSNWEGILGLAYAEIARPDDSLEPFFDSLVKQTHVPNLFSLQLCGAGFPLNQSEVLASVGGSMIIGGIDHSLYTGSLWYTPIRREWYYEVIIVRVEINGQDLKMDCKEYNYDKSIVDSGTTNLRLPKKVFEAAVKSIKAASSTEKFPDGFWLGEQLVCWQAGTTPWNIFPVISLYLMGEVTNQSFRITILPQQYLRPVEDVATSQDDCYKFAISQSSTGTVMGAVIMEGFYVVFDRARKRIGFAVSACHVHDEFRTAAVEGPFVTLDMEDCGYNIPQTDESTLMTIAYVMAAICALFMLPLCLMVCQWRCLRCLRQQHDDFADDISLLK

CC1(c2cc(NC(=O)c3ccc(Cl)cn3)ccc2F)N=C(N)OC2(CCC2)C1(F)F (centres unmarked) [Compound 9-160, N-(3-(6-amino-9,9-difluoro-8-methyl-5-oxa-7-azaspiro[3.5]non-6-en-8-yl)-4-fluorophenyl)-5-chloropicolinamide]
IC50 [1]: 19.5 nM
IC50 [2]: 66 nM
IC50 [3]: > 30000 nM
IC50 [4]: 268 nM

CC1(c2cc(NC(=O)c3ccc(C#N)cn3)ccc2F)N=C(N)OC2(CCC2)C1(F)F (centres unmarked) [Compound 9-161, N-(3-(6-amino-9,9-difluoro-8-methyl-5-oxa-7-azaspiro[3.5]non-6-en-8-yl)-4-fluorophenyl)-5-cyanopicolinamide]
IC50 [1]: 13.5 nM
IC50 [2]: 66 nM
IC50 [3]: > 30000 nM
IC50 [4]: 38 nM

C[C@]1(c2cc(NC(=O)c3ccc(C#N)cn3)ccc2F)N=C(N)OC2(CCC2)C1(F)F [Compound 9-162, (R)—N-(3-(6-amino-9,9-difluoro-8-methyl-5-oxa-7-azaspiro[3.5]non-6-en-8-yl)-4-fluorophenyl)-5-cyanopicolinamide]
IC50 [1]: 15 nM
IC50 [2]: 40 nM
IC50 [3]: > 30000 nM
IC50 [4]: 39 nM

Cc1nc(C(=O)Nc2ccc(F)c(C3(C)N=C(N)OC4(CCC4)C3(F)F)c2)co1 (centres unmarked) [Compound 9-165, N-(3-(6-amino-9,9-difluoro-8-methyl-5-oxa-7-azaspiro[3.5]non-6-en-8-yl)-4-fluorophenyl)-2-methyloxazole-4-carboxamide]
IC50 [1]: 34 nM
IC50 [2]: 496 nM
IC50 [3]: > 30000 nM
IC50 [4]: 176 nM

COc1cccnc1Nc1ccc(F)c([C@]2(C)CC3(CCOCC3)SC(N)=N2)c1 [Compound 13-182, (S)-4-(2-fluoro-5-(3-methoxypyridin-2-ylamino)phenyl)-4-methyl-9-oxa-1-thia-3-azaspiro[5.5]undec-2-en-2-amine]
IC50 [1]: 2 nM
IC50 [2]: 32 nM
IC50 [3]: 14700 nM
IC50 [4]: < 123 nM

CC#Cc1cncc(-c2csc([C@]3(C)CC4(CCOCC4)OC(N)=N3)c2)c1 [Compound 104]
effect on brain Aβ x-40 levels ([5]; 50 and 200 mg/kg oral): no significant effect

CC1(c2cc(NC(=O)c3ccc(F)cn3)ccc2F)CC2(CCC2)OC(N)=N1 (centres unmarked) [Compound 125]
effect on brain Aβ x-40 levels ([5]; 30 or 100 mg/kg oral): no significant effect

C[C@@]1(c2cc(NC(=O)c3ccc(F)cn3)ccc2F)CC2(CCOCC2)SC(N)=N1 [Compound 148]
decrease of the mean Aβ x-40 compared to vehicle control in brain samples ([5]; 10 mg/kg oral): 23%
decrease of the mean Aβ x-40 compared to vehicle control in brain samples ([5]; 30 mg/kg oral): 31%
decrease of the mean Aβ x-40 compared to vehicle control in brain samples ([5]; 60 mg/kg oral): 31%
decrease of the mean Aβ x-40 compared to vehicle control in brain samples ([5]; 100 mg/kg oral): 40%

C[C@@]1(c2cc(NC(=O)c3ccc(Cl)cn3)ccc2F)CC2(CCOCC2)SC(N)=N1 [Compound 151]
duration of reduction in Aβ x-40 levels in CSF (relative to 12 hours in brain) ([5]; 30 mg/kg oral, rat, various timepoints, CSF): longer
duration of reduction in Aβ x-40 levels in brain samples ([5]; 30 mg/kg oral, rat, various timepoints, brain): up to 12 hours

C[C@@]1(c2cc(NC(=O)c3ccc(Cl)cn3)ccc2F)CC2(CC2)OC(N)=N1 [Compound 154]
decrease of the mean Aβ x-40 compared to vehicle control in brain samples ([5]; 100 mg/kg oral): 25%
